Assay results from US4218562A, “Antibiotic derivatives of XK-62-2” (Abbott Laboratories, priority 1978, dated 1980).
Values after ≈ are worked out from the molar mass of the structure shown. Read-outs that look alike come from different tables or passages of the source.

Assays:
Type in all cases: cell-based
[1] = test system: Klebsiella pneumoniae No. 8045; assay: Agar dilution MIC, pH 7.2: Klebsiella pneumoniae No. 8045; details: NO.8045, pH 7.2, read-out: Minimum Inhibitory Concentration
[2] = test system: Proteus Mirabilis 1287; assay: Agar dilution MIC, pH 7.2: Proteus Mirabilis 1287; details: pH 7.2, read-out: Minimum Inhibitory Concentration
[3] = test system: Escherichia coli ATCC 26; assay: Agar dilution MIC, pH 8.0: Escherichia coli ATCC 26
[4] = test system: Bacillus subtillus ATCC 6688; assay: Agar dilution MIC, pH 7.2: Bacillus subtillus ATCC 6688
[5] = test system: Salmanella typhosa ATCC 9992; assay: microbe, parasite or virus in culture
[6] = test system: Sarcina lucca ATCC 9341; assay: Agar dilution MIC, pH 7.2: Sarcina lucca ATCC 9341; details: ATCC9341, pH 7.2, read-out: Minimum Inhibitory Concentration
[7] = test system: Pseudomanas aeruginosa BMH 1; assay: Agar dilution MIC, pH 8.0: Pseudomonas aeruginosa BMH 1
[8] = test system: staphylococcus aureus Smith; assay: Agar dilution MIC, pH 7.2: Staphylococcus aureus Smith; details: pH 7.2, read-out: Minimum Inhibitory Concentration
[9] = test system: Proteus vulgaris 6897; assay: Agar dilution MIC, pH 7.2: Proteus vulgaris 6897; details: Proteus vulgaris, 6897, pH 7.2, read-out: Minimum Inhibitory Concentration
[10] = test system: Pseudomonas aeruginosa KY 8512; assay: Agar dilution MIC, pH 7.2: Pseudomonas aeruginosa KY 8512; details: KY8512, pH 7.2, read-out: Minimum Inhibitory Concentration
From the text: ^7 produces neamycinkanamycin phosphotransferase Type

[11] = test system: Pseudomonas aeruginosa KY 8510; assay: Agar dilution MIC, pH 7.2: Pseudomonas aeruginosa KY 8510; details: KY8510, pH 7.2, read-out: Minimum Inhibitory Concentration
[12] = test system: Escherichia coli KY 8321; assay: Agar dilution MIC, pH 7.2: Escherichia coli KY 8321; details: KY8321, pH 7.2, read-out: Minimum Inhibitory Concentration
[13] = test system: Pseudomonas aeruginosa KY 8511; assay: Agar dilution MIC, pH 7.2: Pseudomonas aeruginosa KY 8511; details: KY8511, pH 7.2, read-out: Minimum Inhibitory Concentration
[14] = test system: Krobsiella pneumoniae ATCC 10081; assay: Agar dilution MIC, pH 8.0: Krobsiella pneumoniae ATCC 10081
[15] = test system: Bacillus subtilis No. 10707; assay: Agar dilution MIC, pH 8.0: Bacillus subtilis No. 10707
[16] = test system: Staphylococcus aureus ATCC 6538P; assay: Agar dilution MIC, pH 8.0: Staphylococcus aureus ATCC 6538P; details: ATCC6538P
[17] = test system: Proteus marganii KY 4298; assay: Agar dilution MIC, pH 7.2: Proteus marganii KY 4298; details: pH 7.2, read-out: Minimum Inhibitory Concentration
[18] = test system: Proteus vulgaris ATCC 6897; assay: Agar dilution MIC, pH 8.0: Proteus vulgaris ATCC 6897
[19] = test system: staphylococcus aureus 209P; assay: Agar dilution MIC, pH 7.2: Staphylococcus aureus 209P; details: pH 7.2, read-out: Minimum Inhibitory Concentration
[20] = test system: Escherichia coli T-2; assay: Agar dilution MIC, pH 7.2: Escherichia coli T-2; details: T2, pH 7.2, read-out: Minimum Inhibitory Concentration
[21] = test system: Pseudomonas aeruginosa BMH No. 1; assay: Agar dilution MIC, pH 7.2: Pseudomonas aeruginosa BMH No. 1
[22] = test system: Escherichia coli T-5; assay: Agar dilution MIC, pH 7.2: Escherichia coli T-5; details: T5, pH 7.2, read-out: Minimum Inhibitory Concentration
[23] = test system: Pseudomonas aeruginosa KY 8516; assay: Agar dilution MIC, pH 7.2: Pseudomonas aeruginosa KY 8516; details: KY8516, pH 7.2, read-out: Minimum Inhibitory Concentration
[24] = test system: Shigella seanei ATCC 9250; assay: microbe, parasite or virus in culture
[25] = test system: strains of Escherichia coli having an R factor; assay: Anti-bacterial activity against Escherichia coli having an R factor; details: E. coli having an R factor which shows resistance to known aminoglycoside antibiotics
[26] = test system: Escherichia coli KY 8327; assay: Agar dilution MIC, pH 8.0: Escherichia coli KY 8327; details: for MIC: Escherichia coli, KY8327, agar-dilution method, pH 8.0, strain produces gentamicin adenyltransferase, read-out: Minimum Inhibitory Concentration; for anti-bacterial activity: comparison of MIC in Table 1, E. coli KY 8327
From the text: (§1) The former bacterium inactivates kanamycins and gentamicins by adenylation, and the latter inactivates gentamicins by acetylation.

[27] = test system: Escherichia coli KY 8348; assay: Agar dilution MIC, pH 8.0: Escherichia coli KY 8348; details: for anti-bacterial activity: comparison of MIC in Table 1, E. coli KY 8348
From the text: as §1

[28] = test system: various bacteria having a resistance to at least one of gentamicin antibiotics and XK-62-2; assay: Antibacterial activity against resistant bacteria (summary of Table 2); details: bacteria producing gentamicin adenyltransferase and/or gentamicin acetyltransferase Type I and Type II; from Table 2
[29] = pH 8, read-out: Minimum Inhibitory Concentration
[30] = agar-dilution method, pH 8.0, read-out: Minimum Inhibitory Concentration
[31] = ATCC6897, agar-dilution method, pH 8.0, read-out: Minimum Inhibitory Concentration

In the case of `NC[C@H]1O[C@H](O[C@H]2[C@H](O)[C@@H](O[C@H]3O[C@H](CO)[C@@H](O)[C@H](N)[C@H]3O)[C@H](N)C[C@@H]2N)[C@H](O)[C@@H](O)[C@@H]1O` [Kanamycin A, kanamycin A], the MIC [1] is reported as 0.4 µg/mL (≈ 0.826 µM), the MIC [2] is reported as 6.25 µg/mL (≈ 12.9 µM) and the MIC ([3]; ATCC26, pH 8, read-out: Minimum Inhibitory Concentration) is reported as 0.16 µg/mL (≈ 0.33 µM). For the same compound, the MIC ([4]; ATCC6688, pH 7.2, read-out: Minimum Inhibitory Concentration) was 0.2 µg/mL (≈ 0.413 µM), the MIC [5, 29] was 0.088 µg/mL (≈ 0.182 µM) and the MIC [6] was 6.25 µg/mL (≈ 12.9 µM). The MIC ([7]; BMH1, pH 8, read-out: Minimum Inhibitory Concentration) was 5.2 µg/mL (≈ 10.7 µM), the MIC [8] was 0.2 µg/mL (≈ 0.413 µM) and the MIC [9] was 3.12 µg/mL (≈ 6.44 µM). It also gave an MIC [10] of 12.5 µg/mL (≈ 25.8 µM), an MIC [11] of 100 µg/mL (≈ 206 µM) and an MIC [12] of 100 µg/mL (≈ 206 µM). It also gave an MIC [13] of 100 µg/mL (≈ 206 µM), an MIC [14, 29] of 0.042 µg/mL (≈ 0.0867 µM) and an MIC ([15]; NO.10707, pH 8, read-out: Minimum Inhibitory Concentration) of 0.021 µg/mL (≈ 0.0433 µM). For the same compound, the MIC [16, 29] was 0.021 µg/mL (≈ 0.0433 µM), the MIC [17] was 1.56 µg/mL (≈ 3.22 µM) and the MIC ([18]; ATCC6897, pH 8, read-out: Minimum Inhibitory Concentration) was 0.16 µg/mL (≈ 0.33 µM). It also gave an MIC [19] of 0.2 µg/mL (≈ 0.413 µM), an MIC [20] of 1.56 µg/mL (≈ 3.22 µM) and an MIC ([21]; BMHNO.1, pH 7.2, read-out: Minimum Inhibitory Concentration) of 12.5 µg/mL (≈ 25.8 µM). The MIC [22] was 1.56 µg/mL (≈ 3.22 µM), the MIC [23] was greater than 100 µg/mL and the MIC ([24]; ATCC9250, pH 8, read-out: Minimum Inhibitory Concentration) was 0.16 µg/mL (≈ 0.33 µM).

With `CNC[C@@H]1CC[C@@H](NC(=O)[C@@H](O)CCN)[C@@H](O[C@H]2[C@H](O)[C@@H](O[C@H]3OC[C@](C)(O)[C@H](NC)[C@H]3O)[C@H](N)C[C@@H]2NC(=O)[C@@H](O)CCN)O1` [IV, 3-N-2'-N-bis[L-(-)-α-hydroxy-γ-aminobutyryl]XK-62-2] the anti-bacterial activity [25] was “strong anti-bacterial activity”, the MIC ([3]; ATCC26, agar-dilution method, pH 8.0, read-out: Minimum Inhibitory Concentration) was 0.13 µg/mL (≈ 0.195 µM) and the MIC [5, 30] was 0.13 µg/mL (≈ 0.195 µM). It also gave an MIC ([7]; BMH1, agar-dilution method, pH 8.0, read-out: Minimum Inhibitory Concentration) of 8.34 µg/mL (≈ 12.5 µM), an MIC [14, 30] of 0.065 µg/mL (≈ 0.0976 µM) and an MIC ([15]; NO.10707, agar-dilution method, pH 8.0, read-out: Minimum Inhibitory Concentration) of 0.016 µg/mL (≈ 0.024 µM). The MIC [16, 30] was 0.13 µg/mL (≈ 0.195 µM), the MIC [18, 31] was 0.521 µg/mL (≈ 0.783 µM) and the MIC [26] was 0.26 µg/mL (≈ 0.391 µM). The “anti-bacterial activity” value [26] was “strong anti-bacterial activity”, the MIC ([24]; ATCC9250, agar-dilution method, pH 8.0, read-out: Minimum Inhibitory Concentration) was 0.26 µg/mL (≈ 0.391 µM) and the MIC ([27]; Escherichia coli, KY8348, agar-dilution method, pH 8.0, strain produces gentamicin acetyltransferase Type I, read-out: Minimum Inhibitory Concentration) was 0.13 µg/mL (≈ 0.195 µM). For the same compound, the “anti-bacterial activity” value [27] was “strong anti-bacterial activity”.

`CNC[C@@H]1CC[C@@H](N)[C@@H](O[C@H]2[C@H](O)[C@@H](O[C@H]3OC[C@](C)(O)[C@H](NC)[C@H]3O)[C@H](NC(=O)[C@@H](O)CCN)C[C@@H]2N)O1` [Compound II, 1-N-[L-(-)-α-hydroxy-γ-aminobutyryl]XK-62-2] was tested, and the anti-bacterial activity [25] was “strong anti-bacterial activity”, the “antibacterial activity” value [28] was “very strong antibacterial activity” and the MIC ([4]; ATCC6688, agar dilution method, pH 7.2, read-out: Minimum Inhibitory Concentration) was 0.1 µg/mL (≈ 0.177 µM). For the same compound, the MIC [6] was 0.4 µg/mL (≈ 0.708 µM), the MIC [14, 30] was 0.008 µg/mL (≈ 0.0142 µM) and the MIC [16, 30] was 0.016 µg/mL (≈ 0.0283 µM). The MIC [18, 31] was 0.065 µg/mL (≈ 0.115 µM), the MIC [26] was 0.016 µg/mL (≈ 0.0283 µM) and the “anti-bacterial activity” value [26] was “strong anti-bacterial activity”. The MIC ([21]; BMHNO.1, agar dilution method, pH 7.2, read-out: Minimum Inhibitory Concentration) was 1.56 µg/mL (≈ 2.76 µM) and the “anti-bacterial activity” value [27] was “strong anti-bacterial activity”.
